According to article PMC8213057, “Targeting ALK2: An Open Science Approach to Developing Therapeutics for the Treatment of Diffuse Intrinsic Pontine Glioma” (Journal of Medicinal Chemistry, 2020):
Several values for one entry are separate records, joined by “and”; a condition that tells them apart may be missing. Equal entries are not always repeated.

Columns and labels:
[1] = target: T1, PKG2/PRKG2 (Homo sapiens, UniProt Q13237); conditions: 1 μM; Run 1, Run 2
T1 sequence (Q13237 1-762): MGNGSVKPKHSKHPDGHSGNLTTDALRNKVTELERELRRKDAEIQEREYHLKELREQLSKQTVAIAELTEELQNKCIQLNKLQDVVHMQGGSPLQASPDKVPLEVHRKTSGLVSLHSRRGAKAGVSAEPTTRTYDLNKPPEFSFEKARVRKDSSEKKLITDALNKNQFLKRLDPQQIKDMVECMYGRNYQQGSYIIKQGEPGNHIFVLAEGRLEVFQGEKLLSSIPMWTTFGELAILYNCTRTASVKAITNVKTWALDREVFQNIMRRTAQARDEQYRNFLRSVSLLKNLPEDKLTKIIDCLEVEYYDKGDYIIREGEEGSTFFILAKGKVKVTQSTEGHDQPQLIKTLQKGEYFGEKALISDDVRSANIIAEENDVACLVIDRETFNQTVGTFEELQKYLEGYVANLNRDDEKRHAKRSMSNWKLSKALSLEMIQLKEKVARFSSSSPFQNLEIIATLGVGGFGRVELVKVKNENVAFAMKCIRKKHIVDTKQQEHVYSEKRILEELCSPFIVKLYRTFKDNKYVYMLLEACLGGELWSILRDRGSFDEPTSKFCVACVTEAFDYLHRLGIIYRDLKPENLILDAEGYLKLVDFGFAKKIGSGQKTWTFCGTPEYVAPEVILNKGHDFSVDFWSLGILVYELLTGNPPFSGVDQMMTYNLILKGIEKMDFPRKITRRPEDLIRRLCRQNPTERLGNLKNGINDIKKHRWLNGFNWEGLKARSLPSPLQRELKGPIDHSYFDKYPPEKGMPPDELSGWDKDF

[2] = target: WNK2 (Homo sapiens, UniProt Q9Y3S1); assay: biochemical; conditions: read-out: % enzyme activity, 1 μM; Run 1, Run 2
[3] = target: T2, LCK2/ICK (Homo sapiens, UniProt Q9UPZ9); conditions: 1 μM; Run 1, Run 2
T2 sequence (Q9UPZ9 1-632): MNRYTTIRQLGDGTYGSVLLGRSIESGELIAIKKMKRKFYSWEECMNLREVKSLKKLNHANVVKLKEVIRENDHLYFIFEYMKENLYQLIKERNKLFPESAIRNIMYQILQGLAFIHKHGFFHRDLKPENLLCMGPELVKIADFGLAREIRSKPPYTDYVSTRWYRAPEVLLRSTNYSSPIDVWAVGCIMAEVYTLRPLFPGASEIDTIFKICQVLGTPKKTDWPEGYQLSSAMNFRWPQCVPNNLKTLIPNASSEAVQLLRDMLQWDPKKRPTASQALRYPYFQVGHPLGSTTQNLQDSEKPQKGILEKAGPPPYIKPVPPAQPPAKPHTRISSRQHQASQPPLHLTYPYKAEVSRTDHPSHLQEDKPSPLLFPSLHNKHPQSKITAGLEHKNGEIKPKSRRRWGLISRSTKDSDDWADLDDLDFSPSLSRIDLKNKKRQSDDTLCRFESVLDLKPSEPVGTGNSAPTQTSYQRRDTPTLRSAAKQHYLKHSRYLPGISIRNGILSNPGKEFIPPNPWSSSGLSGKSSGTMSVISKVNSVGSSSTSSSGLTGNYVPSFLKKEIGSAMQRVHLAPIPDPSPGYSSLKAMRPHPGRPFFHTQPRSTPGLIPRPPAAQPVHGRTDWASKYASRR

[4] = target: CAMK2b (Homo sapiens, UniProt Q13554); assay: biochemical; conditions: read-out: % enzyme activity, 1 μM; Run 1, Run 2
Chain of CAMK2b (Q13554 whole entry): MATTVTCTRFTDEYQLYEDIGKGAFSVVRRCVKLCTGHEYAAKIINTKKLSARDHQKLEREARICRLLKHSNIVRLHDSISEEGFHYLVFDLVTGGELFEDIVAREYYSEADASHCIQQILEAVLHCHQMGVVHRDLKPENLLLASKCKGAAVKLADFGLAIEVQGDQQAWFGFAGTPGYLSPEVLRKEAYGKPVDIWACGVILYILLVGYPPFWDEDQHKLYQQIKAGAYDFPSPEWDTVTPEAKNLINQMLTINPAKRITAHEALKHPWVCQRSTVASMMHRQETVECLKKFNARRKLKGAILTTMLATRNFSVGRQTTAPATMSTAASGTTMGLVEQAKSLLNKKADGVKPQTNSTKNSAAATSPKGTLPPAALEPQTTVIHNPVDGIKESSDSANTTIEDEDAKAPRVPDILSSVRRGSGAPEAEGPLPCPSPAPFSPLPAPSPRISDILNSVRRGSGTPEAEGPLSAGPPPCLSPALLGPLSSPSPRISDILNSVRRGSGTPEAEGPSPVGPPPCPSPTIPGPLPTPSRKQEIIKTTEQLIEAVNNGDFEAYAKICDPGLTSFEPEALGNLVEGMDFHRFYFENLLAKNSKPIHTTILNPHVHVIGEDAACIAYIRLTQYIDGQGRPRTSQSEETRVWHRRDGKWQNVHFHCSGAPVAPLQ

[5] = system: MNK2
[6] = target: NEK4 (Homo sapiens, UniProt P51957); conditions: 1 μM; Run 1, Run 2
Chain of NEK4 (P51957 whole entry): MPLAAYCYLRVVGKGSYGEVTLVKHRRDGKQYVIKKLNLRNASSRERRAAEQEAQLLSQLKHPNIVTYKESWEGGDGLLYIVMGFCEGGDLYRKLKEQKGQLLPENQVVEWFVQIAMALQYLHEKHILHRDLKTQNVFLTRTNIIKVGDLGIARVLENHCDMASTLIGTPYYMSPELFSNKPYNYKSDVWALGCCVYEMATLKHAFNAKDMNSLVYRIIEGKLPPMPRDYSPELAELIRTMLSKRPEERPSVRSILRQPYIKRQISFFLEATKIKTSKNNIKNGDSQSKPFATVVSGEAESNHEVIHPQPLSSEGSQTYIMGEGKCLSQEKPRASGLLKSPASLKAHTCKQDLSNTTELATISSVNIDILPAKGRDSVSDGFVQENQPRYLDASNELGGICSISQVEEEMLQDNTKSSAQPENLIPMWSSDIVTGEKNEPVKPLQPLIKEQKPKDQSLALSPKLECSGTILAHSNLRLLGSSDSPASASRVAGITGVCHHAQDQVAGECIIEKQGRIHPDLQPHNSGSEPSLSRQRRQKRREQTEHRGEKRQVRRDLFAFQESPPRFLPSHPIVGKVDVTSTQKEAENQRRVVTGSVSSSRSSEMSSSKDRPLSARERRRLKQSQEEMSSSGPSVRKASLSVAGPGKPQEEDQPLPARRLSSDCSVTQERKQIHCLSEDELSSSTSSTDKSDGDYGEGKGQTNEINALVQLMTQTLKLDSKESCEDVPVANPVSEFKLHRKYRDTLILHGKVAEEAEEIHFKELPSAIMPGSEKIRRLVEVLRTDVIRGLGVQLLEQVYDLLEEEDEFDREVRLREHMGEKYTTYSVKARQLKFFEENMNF

[7] = target: HIPK3 (Homo sapiens, UniProt Q9H422); conditions: 1 μM; Run 1, Run 2
Chain of HIPK3 (Q9H422 whole entry): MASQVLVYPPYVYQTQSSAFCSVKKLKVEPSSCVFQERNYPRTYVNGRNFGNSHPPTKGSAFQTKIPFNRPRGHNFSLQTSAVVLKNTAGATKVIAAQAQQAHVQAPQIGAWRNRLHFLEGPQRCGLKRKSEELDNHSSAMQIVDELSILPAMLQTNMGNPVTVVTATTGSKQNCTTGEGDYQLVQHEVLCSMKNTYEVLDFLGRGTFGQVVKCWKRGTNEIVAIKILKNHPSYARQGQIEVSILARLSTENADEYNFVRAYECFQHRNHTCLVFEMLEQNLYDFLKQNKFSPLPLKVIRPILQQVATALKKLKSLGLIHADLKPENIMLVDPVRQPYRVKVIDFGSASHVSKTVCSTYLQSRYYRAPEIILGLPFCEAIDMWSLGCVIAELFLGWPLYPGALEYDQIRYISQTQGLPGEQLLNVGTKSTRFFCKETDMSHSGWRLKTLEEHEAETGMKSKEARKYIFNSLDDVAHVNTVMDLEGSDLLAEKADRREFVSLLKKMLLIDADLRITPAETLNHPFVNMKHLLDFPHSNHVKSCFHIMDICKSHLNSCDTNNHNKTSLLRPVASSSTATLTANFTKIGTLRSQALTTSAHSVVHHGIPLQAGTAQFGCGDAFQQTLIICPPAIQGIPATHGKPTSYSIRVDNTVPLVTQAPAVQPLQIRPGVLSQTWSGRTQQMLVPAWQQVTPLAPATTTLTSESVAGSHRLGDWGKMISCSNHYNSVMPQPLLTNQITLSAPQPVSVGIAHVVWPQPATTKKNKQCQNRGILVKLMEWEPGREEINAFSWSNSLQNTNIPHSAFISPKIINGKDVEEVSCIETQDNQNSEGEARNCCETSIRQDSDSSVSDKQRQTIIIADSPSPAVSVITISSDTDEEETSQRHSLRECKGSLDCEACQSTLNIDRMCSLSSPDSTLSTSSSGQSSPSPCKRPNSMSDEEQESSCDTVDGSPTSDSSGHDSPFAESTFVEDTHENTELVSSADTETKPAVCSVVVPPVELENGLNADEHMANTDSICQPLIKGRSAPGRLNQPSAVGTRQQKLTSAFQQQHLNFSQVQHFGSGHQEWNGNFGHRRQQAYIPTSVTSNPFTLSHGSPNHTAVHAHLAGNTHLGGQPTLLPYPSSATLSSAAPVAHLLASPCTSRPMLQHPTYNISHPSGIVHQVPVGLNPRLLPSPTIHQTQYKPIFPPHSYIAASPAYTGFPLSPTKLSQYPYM

[8] = system: ALK2/ACVR1
[9] = target: T3, EPHB2 (Homo sapiens, UniProt P29323); conditions: 1 μM; Run 1, Run 2
T3 sequence (P29323 19-1055): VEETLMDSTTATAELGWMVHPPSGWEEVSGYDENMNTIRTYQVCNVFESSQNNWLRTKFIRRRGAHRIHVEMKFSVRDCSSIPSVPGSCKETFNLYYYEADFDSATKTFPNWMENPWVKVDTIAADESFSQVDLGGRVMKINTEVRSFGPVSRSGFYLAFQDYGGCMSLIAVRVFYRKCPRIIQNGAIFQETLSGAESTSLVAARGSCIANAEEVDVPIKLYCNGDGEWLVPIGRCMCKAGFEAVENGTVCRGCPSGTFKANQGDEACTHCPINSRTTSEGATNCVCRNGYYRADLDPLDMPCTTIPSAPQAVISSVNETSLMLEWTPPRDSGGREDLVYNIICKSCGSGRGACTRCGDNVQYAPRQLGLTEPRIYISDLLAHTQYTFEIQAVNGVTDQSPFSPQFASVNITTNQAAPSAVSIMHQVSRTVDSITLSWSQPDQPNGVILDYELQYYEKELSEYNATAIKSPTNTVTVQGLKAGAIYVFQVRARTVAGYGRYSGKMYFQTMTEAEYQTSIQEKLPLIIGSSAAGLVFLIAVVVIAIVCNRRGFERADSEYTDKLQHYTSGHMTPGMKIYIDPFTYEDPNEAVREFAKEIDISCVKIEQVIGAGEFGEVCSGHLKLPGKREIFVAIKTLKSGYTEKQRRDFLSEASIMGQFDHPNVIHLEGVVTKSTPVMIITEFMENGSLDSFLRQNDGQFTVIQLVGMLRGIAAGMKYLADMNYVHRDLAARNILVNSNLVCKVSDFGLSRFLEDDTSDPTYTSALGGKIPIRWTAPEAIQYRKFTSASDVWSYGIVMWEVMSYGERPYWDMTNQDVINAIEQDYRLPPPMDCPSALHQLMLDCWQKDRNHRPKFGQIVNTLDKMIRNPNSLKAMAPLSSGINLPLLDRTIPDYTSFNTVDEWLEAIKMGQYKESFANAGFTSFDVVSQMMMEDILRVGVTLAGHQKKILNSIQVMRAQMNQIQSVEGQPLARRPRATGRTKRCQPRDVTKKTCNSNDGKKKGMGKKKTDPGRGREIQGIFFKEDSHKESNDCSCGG

[10] = target: SRPK1 (Homo sapiens, UniProt Q96SB4); assay: biochemical; conditions: read-out: % enzyme activity, 1 μM; Run 1, Run 2
Chain of SRPK1 (Q96SB4 whole entry): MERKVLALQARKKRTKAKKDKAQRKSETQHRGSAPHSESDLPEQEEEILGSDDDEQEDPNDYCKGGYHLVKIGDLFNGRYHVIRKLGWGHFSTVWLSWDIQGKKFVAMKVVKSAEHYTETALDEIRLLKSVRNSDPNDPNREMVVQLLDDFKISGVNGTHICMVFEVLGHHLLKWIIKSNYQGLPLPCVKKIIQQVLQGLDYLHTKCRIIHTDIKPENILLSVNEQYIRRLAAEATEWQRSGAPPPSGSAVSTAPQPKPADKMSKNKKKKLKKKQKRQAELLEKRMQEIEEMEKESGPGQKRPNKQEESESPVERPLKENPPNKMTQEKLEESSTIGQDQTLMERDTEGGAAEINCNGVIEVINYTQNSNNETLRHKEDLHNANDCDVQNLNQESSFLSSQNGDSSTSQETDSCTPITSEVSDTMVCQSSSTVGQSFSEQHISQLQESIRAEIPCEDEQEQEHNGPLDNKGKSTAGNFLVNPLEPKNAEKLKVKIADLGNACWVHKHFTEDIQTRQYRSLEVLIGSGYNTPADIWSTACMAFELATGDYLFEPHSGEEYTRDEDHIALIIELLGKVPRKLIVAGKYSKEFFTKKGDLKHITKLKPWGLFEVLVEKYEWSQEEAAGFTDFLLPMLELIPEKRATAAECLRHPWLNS

[11] = target: ERN1/IRE1 (Homo sapiens, UniProt O75460); conditions: 1 μM; Run 1, Run 2
Chain of ERN1/IRE1 (O75460 19-977): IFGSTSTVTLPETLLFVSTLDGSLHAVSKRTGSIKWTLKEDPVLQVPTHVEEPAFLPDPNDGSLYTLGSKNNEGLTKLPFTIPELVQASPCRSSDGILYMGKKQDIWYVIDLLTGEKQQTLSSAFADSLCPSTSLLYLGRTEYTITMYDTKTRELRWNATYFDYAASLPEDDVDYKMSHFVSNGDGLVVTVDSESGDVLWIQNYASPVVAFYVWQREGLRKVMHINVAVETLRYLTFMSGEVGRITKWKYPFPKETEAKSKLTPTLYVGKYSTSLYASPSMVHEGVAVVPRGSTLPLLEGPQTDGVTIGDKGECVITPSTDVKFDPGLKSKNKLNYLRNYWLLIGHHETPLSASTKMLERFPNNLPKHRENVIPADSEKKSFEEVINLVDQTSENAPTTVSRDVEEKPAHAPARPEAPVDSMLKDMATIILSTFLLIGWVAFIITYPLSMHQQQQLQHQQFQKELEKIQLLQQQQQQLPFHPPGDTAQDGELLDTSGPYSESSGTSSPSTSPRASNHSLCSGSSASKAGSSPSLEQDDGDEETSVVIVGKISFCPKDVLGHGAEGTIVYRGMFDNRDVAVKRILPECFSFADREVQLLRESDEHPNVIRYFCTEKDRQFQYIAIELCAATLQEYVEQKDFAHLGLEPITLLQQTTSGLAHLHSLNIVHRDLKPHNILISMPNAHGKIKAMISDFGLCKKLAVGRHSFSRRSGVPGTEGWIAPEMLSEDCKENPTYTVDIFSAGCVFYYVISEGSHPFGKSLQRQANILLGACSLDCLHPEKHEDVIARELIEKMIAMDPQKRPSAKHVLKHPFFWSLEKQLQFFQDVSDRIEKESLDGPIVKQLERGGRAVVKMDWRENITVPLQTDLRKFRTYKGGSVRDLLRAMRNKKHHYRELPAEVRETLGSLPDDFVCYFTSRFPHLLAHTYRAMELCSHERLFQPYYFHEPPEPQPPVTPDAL

SMILES	% enzyme activity [1] [%]	remaining activity at 1 µM [2] [%]	% enzyme activity [3] [%]	remaining activity at 1 µM [4] [%]	% enzyme activity at 1 μM [5]	% enzyme activity [6] [%]	% enzyme activity [7] [%]	% enzyme activity at 1 μM [8]	% enzyme activity [9] [%]	remaining activity at 1 µM [10] [%]	% enzyme activity [11] [%]
COc1cc(-c2cncc(-c3ccc(N4CCN(C)CC4)cc3)c2C)cc(F)c1C(N)=O [Compound 26a, 2-Fluoro-6-methoxy-4-(4-methyl-5-(4-(4-methylpiperazin-1-yl)phenyl)pyridin-3-yl)benzamide]	97.48	95.5	104.57	83.9	48.2%	97.67	97.73	9.92% and 8.63%	92.89	112	92.47
COc1cc(-c2cncc(-c3ccc(N4C[C@@H](C)N(C)[C@@H](C)C4)cc3)c2C)cc(F)c1C(N)=O [Compound 26c, 2-Fluoro-6-methoxy-4-(4-methyl-5-(4-((3R,5S)-3,4,5-trimethylpiperazin-1-yl)phenyl)pyridin-3-yl)benzamide]	97.08	96.9	95.60	92.8	70.8% and 68.3%	97.25	89.08	13.7% and 11.7%	97.40	89.3	90.44
